System: C3H/HeNCrJ mice
Experiment: Hair growth test on clipped backs of mice
Type: in vivo
Conditions: C3H/HeNCrJ mice in telogen phase, n=3; 0.2 ml sprayed on clipped back once a day; hair measured under microscope
Text: In Table 1,5-aminolevulinic acid (sometimes abbreviated as ALA) of the present invention and iron compounds, and the blend compositions of them and urea are shown in wt %. For 1 g of ALA, 0.4 g of ferrous citrate, 2.81 g of iron lactate, 5.7 g of iron sodium diethylenetriaminepentaacetate, 5.6 g of iron ammonium diethylenetriaminepentaacetate, and 0.36 g of ferrous gluconate were blended respectively. The body hair on the backs of C3H/HeNCrJ mice (n=3 in each group), which were in telogen phase of hair growth cycle, was clipped with a hair clipper, and each suspension shown in Table 1 was applied to the back once a day, in an amount of 0.2 ml, by spraying uniformly.
In addition, photographs of the backs of mice on which the sample No. 8 of the present invention, 5% minoxidil (positive control), and distilled water (negative control) were respectively applied were taken 20 days after the application.

Structure (SMILES): Nc1cc(N2CCCCC2)nc(N)[n+]1[O-] [5% Minoxidil, 6-(1-piperidinyl)-2,4-pyrimidinediamine-3-oxide]
- Hair Length after 2 weeks: 1.70 mm

Structure (SMILES): NCC(=O)CCC(=O)O [Control, 5-aminolevulinic acid]
- Hair Length after 2 weeks: 1.08 mm
